Measurements as given in patent US9486507B2, “Pro-coagulant compounds and methods of use thereof” (priority 2011, dated 2016).
Square brackets hold non-standard residues; d marks the D form. Ends that are not written are not given here.

Legend:
[1] = system: FVIII deficient human plasma; experiment: Thrombin generation assay (TGA) in FVIII-deficient plasma; format: biochemical; settings: for TGA activity in the presence of FVIII: 0.1 U/mL FVIII, compound 7 100-6.3 uM, compounds 8 and 9 50-3.1 uM
FIXa = FIXa (Homo sapiens, UniProt P00740); experiment: FXa generation assay with human FIXa; format: biochemical; set-up: purchased Haematologic Technologies
FIXa, sequence (P00740 47-191 limits assumed): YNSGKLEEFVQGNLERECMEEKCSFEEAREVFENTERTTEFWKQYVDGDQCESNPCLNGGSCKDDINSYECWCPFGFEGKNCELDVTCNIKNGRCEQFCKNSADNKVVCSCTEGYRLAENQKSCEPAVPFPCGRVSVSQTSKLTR
FIXa, sequence (P00740 227-461 limits assumed): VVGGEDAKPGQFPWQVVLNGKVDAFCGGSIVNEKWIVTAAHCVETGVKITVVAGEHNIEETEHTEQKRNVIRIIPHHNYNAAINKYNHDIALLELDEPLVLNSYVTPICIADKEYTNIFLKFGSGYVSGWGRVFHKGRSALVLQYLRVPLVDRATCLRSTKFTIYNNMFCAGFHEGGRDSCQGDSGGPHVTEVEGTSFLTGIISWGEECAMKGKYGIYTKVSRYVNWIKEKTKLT
Source text: FXa generation was utilized to assess the capability of the compounds of the present disclosure to enhance the catalytic activities of FIXa and/or FVIIa.
To measure the catalytic activity of FIXa, FIXa was mixed with FX and phospholipids in the presence of calcium chloride. Under these conditions FIXa cleaves the zymogen FX into the active form FXa.
The generation of FXa is monitored by the change in absorbance of the reaction at 405 nm due to the presence of a cleavable FXa chromogenic substrate (S-2765; Z-D-Arg-Gly-Arg-pNA; cleavage of p-nitroaniline). […] The kit contains all the FXa generation components, however, FIXa and FX obtained from this kit are from a bovine origin and were replaced with purified human FIXa or human FVIIa and human FX (Haematologic Technologies).
The assay was also modified to enhance the screening throughput. Instead of the sequential addition, all the assay components were mixed and added simultaneously to the purified compound to be assayed. A 125 μl reaction mix of the assay components was prepared in the buffer supplied by the manufacturer (50 mM Tris 7.3, and 1% BSA). […] The reaction mix (125 ul) was then added to 25 ul of compound diluted in water in a Costar-3651 flat bottom 96-well plate. […] The absorbance was monitored over a period of 1 hour at 405 nm using a plate reader (Synergy 2, Biotek).
The 405 nm absorbance data were then analyzed to obtain the slope of the first derivative which reflects the rate of change in absorbance. The first derivative slope data for each compound concentration were plotted against the compound concentration and fitted to a four-parameter equation to obtain the EC50 and Vmax values for each compound tested.

[2] = FXa generation assay, 10 nM hFIXa, 100 nM hFX, class symbols
[3] = Precision Biologics FVIII-deficient plasma (2), first Baseline (2) series, 2.5 μM
[4] = Precision Biologics FVIII-deficient plasma (2), first Baseline (2) series, 5 μM
[5] = Precision Biologics FVIII-deficient plasma (2), first Baseline (2) series, 10 μM
[6] = Precision Biologics FVIII-deficient plasma (2), second Baseline (2) series, 2.5 μM
[7] = Precision Biologics FVIII-deficient plasma (2), second Baseline (2) series, 5 μM
[8] = Precision Biologics FVIII-deficient plasma (2), second Baseline (2) series, 10 μM
[9] = Precision Biologics FVIII-deficient plasma (2), second Baseline (2) series, 20 μM
[10] = FXa generation assay using human FIXa, class symbols
[11] = FXa generation assay using human FIXa, numeric bounds

| Substance | Vmax (FIXa; [10]) | also measured |
| --- | --- | --- |
| GWKPFLWDPRVLLSSGWYGRG [Compound 7, reference compound] |  | TGA activity in the presence of FVIII [1]: competes with FVIII |
| PRIRTVGPSSRSASGKLTCLASYCWLFWTGIA |  | Vmax (FIXa; [2]): (++++) ((++++)>3); Thrombin Above Baseline (nM) [1, 3]: + (1-10 nM (1) or 1-29 nM (2) (+)); Thrombin Above Baseline (nM) [1, 4]: ++ (11-20 nM (1) or 30-59 nM (2) (++)); Thrombin Above Baseline (nM) [1, 5]: ++ (11-20 nM (1) or 30-59 nM (2) (++)) |
| PRIRSVGPGSRSASGKLTCLASYCWLFWTGIA |  | Vmax (FIXa; [2]): (++++) ((++++)>3); Thrombin Above Baseline (nM) [1, 3]: ++ (11-20 nM (1) or 30-59 nM (2) (++)); Thrombin Above Baseline (nM) [1, 4]: +++ (21-30 nM (1) or 60-90 nM (2) (+++)); Thrombin Above Baseline (nM) [1, 5]: +++ (21-30 nM (1) or 60-90 nM (2) (+++)) |
| PRIRTVGSGSRSASGKLTCLASYCWLFWTGIA |  | Vmax (FIXa; [2]): (++++) ((++++)>3); Thrombin Above Baseline (nM) [1, 3]: + (1-10 nM (1) or 1-29 nM (2) (+)); Thrombin Above Baseline (nM) [1, 4]: + (1-10 nM (1) or 1-29 nM (2) (+)); Thrombin Above Baseline (nM) [1, 5]: + (1-10 nM (1) or 1-29 nM (2) (+)) |
| SRIRTVSPGSRSASGKSTCLASYCWLFWTGIA |  | Vmax (FIXa; [2]): (++++) ((++++)>3); Thrombin Above Baseline (nM) [1, 6]: +++ (21-30 nM (1) or 60-90 nM (2) (+++)); Thrombin Above Baseline (nM) [1, 7]: +++ (21-30 nM (1) or 60-90 nM (2) (+++)); Thrombin Above Baseline (nM) [1, 8]: ++++ (>30 nM (1) or >90 nM (2) (++++)); Thrombin Above Baseline (nM) [1, 9]: ++++ (>30 nM (1) or >90 nM (2) (++++)) |
| PWRRFWAWNPRSLALSTWFGRGCD [Compound 8, reference compound] |  | TGA activity in the presence of FVIII [1]: competes with FVIII |
| PRIRTVSPGSRSASGKSTCLASYCWLFWTGIA |  | Vmax (FIXa; [2]): (++++) ((++++)>3); Thrombin Above Baseline (nM) [1, 6]: ++ (11-20 nM (1) or 30-59 nM (2) (++)); Thrombin Above Baseline (nM) [1, 7]: +++ (21-30 nM (1) or 60-90 nM (2) (+++)); Thrombin Above Baseline (nM) [1, 8]: ++++ (>30 nM (1) or >90 nM (2) (++++)); Thrombin Above Baseline (nM) [1, 9]: ++++ (>30 nM (1) or >90 nM (2) (++++)) |
| SRSRTVSPGSRSASGKSTCLASYCWLFWTGIA |  | Vmax (FIXa; [2]): (++++) ((++++)>3); Thrombin Above Baseline (nM) [1, 6]: +++ (21-30 nM (1) or 60-90 nM (2) (+++)); Thrombin Above Baseline (nM) [1, 7]: ++++ (>30 nM (1) or >90 nM (2) (++++)); Thrombin Above Baseline (nM) [1, 8]: ++++ (>30 nM (1) or >90 nM (2) (++++)) |
| KKTCLASYCWLF | (++) ((++) 1-2) |  |
| RGRSAKLTCLASYCWLFFGVIL | (+++) ((+++)>2) |  |
| EQTCLASYCWLF | (+) ((+)<1) |  |
| AQTRVARCCQLF | (+) ((+)<1) |  |
| KLTCLASYCQLF | (++++) ((++++)>3) | EC50 (FIXa; [10]): 500 to 1000 nM |
| KLTCKASYCWLF | (++++) ((++++)>3) |  |
| GASGRRRTCVASYCLLFQSGLP |  | Vmax (FIXa; [11]): >0.1 |
| KLTCLASQCWLF | (+++) ((+++)>2) |  |
| YARDSTLTCQARTCQLVDYLGP | (+) ((+)<1) |  |
| SRQSDKPTCLAISCSLLTSNVR | (+) ((+)<1) |  |
| KEGFAQLPCLVCQGGLFSPRAI | (+) ((+)<1) |  |
| VARASKVECLASYCQLFVGGEV | (+) ((+)<1) |  |
| KGRCLTSHCWLF | (+) ((+)<1) |  |
| GASSDKLTCRTRHCSMFQPLSV | (+) ((+)<1) |  |
| RLTCLASYCWLF | (+++) ((+++)>2) |  |
| RYQRARLTCLASYCGLLFSMSA |  | Vmax (FIXa; [11]): >0.5 |
| QEQPAKLTCRGSYCWLFKRGDQ | (+) ((+)<1) |  |
| AVAINKVPCVASYCQLFESKIH | (+) ((+)<1) |  |

| Substance | Vmax (FIXa; [10]) | also measured |
| --- | --- | --- |
| LQELTKLTCLARSGWLVCNPGY | (+) ((+)<1) |  |
| SCVKHELKCLSSDSRLFSAVQR | (+) ((+)<1) |  |
| GFGSRKLTSLASYGWLIQDRLP | (+) ((+)<1) |  |
| VQRSTQLTCLYGGCRLFGWNYH | (+) ((+)<1) |  |
| RSFTSELTCLASSCRRFHHVPP | (+) ((+)<1) |  |
| KLTCLASYCWYF | (+++) ((+++)>2) |  |
| SYGRTKLTCLASSCWLFGQVHG | (+) ((+)<1) |  |
| RCAQSRLPWLVSYCWLFSPYGM |  | Vmax (FIXa; [11]): >1.5 |
| PRIrTVGPGSrSASGKLTCLASYCWLFWTGIA (PRI[dR]TVGPGS[dR]SASGKLTCLASYCWLFWTGIA; not fully specified; printed as PRIrTVGPGSrSASGKLTCLASYCWLFWTGIA; cysteine pairing not given here) |  | Thrombin Above Baseline (nM) ([1]; HRF FVIII-deficient plasma (1), 2.5 μM): ++ (11-20 nM (1) or 30-59 nM (2) (++)); Thrombin Above Baseline (nM) ([1]; HRF FVIII-deficient plasma (1), 2.5 μM, listed as PRIRTVGPGSRSASGKLTCLASYCWLFWTGIA): + (1-10 nM (1) or 1-29 nM (2) (+)); Thrombin Above Baseline (nM) ([1]; HRF FVIII-deficient plasma (1), 5 μM): +++ (21-30 nM (1) or 60-90 nM (2) (+++)); Thrombin Above Baseline (nM) ([1]; HRF FVIII-deficient plasma (1), 5 μM, listed as PRIRTVGPGSRSASGKLTCLASYCWLFWTGIA): ++ (11-20 nM (1) or 30-59 nM (2) (++)); Thrombin Above Baseline (nM) ([1]; HRF FVIII-deficient plasma (1), 10 μM): +++ (21-30 nM (1) or 60-90 nM (2) (+++)); Thrombin Above Baseline (nM) ([1]; HRF FVIII-deficient plasma (1), 20 μM): +++ (21-30 nM (1) or 60-90 nM (2) (+++)); Thrombin Above Baseline (nM) [1, 3]: ++ (11-20 nM (1) or 30-59 nM (2) (++)); Thrombin Above Baseline (nM) [1, 4]: +++ (21-30 nM (1) or 60-90 nM (2) (+++)); Thrombin Above Baseline (nM) [1, 5]: +++ (21-30 nM (1) or 60-90 nM (2) (+++)) |
| TLDSKNLQCLGSSCWLFSSGLS | (+) ((+)<1) |  |
| SLADTQLTWLARQYWLSVSEGS | (+) ((+)<1) |  |
| QLTCLASECGLS | (+) ((+)<1) |  |
| QLPCLASYCGLF | (+) ((+)<1) |  |
| QDGVEKLTCLASYCWRFGDHGA | (+) ((+)<1) |  |
| KLTCLASYCWLK | (+) ((+)<1) |  |
| GVEDRQLTCLASSCWVFSRHSV | (++) ((++) 1-2) |  |
| KLTCLATYCWLF | (++) ((++) 1-2) |  |
| LRQRLAKTCVASYCWLFSLVAS |  | Vmax (FIXa; [11]): >1.5 |
| VSGTGRLTCVASYCWMFQLGIF | (++) ((++) 1-2) |  |
| RQLWNKLTCLASYCALIGLSGT | (++) ((++) 1-2) |  |
| SGRGGKLTCQASFCQLFGNGLS | (++) ((++) 1-2) |  |
| FPIQHKLTCLSSDCWLFPSHSY | (+) ((+)<1) |  |
| WVPQWKVTCLASCSRLFHGFDA |  | Vmax (FIXa; [11]): >1.5 |
| LRTQPKVTGLASCSGLVNCSRD | (+) ((+)<1) |  |
| KLTCLASYCFLF | (++++) ((++++)>3) | EC50 (FIXa; [10]): 500 to 1000 nM |
| NPTCQASYCQLF | (+) ((+)<1) |  |

| Substance | Vmax (FIXa; [10]) | also measured |
| --- | --- | --- |
| HYARVQLRCLDGYCWLLTKSRM |  | Vmax (FIXa; [11]): >2.5 |
| AWPYHKPTCLASQCWQFLAQGS | (+) ((+)<1) |  |
| TLTCRASYCQLF | (+) ((+)<1) |  |
| HLGSPKLTCGASQCWLLNHEVS | (+) ((+)<1) |  |
| WHERQQLTCLASYCGLFVGQVA | (+) ((+)<1) |  |
| KLTCRASYCQLF | (+++) ((+++)>2) |  |
| QGQARKLACLASYCWLFPSSAG | (+) ((+)<1) |  |
| VSGTGRLTCVASYCWMFQLGSF | (++) ((++) 1-2) |  |
| GWKPFLWDPRVLLSSGWYGRGGGGGWKPFLWDPRVLLSSGWYGRG [Compound 9, reference compound] |  | TGA activity in the presence of FVIII [1]: competes with FVIII |
| KRYVYRQMCLVSACWLLQLGYA | (++) ((++) 1-2) |  |
| KLTCLASYCWIF | (+++) ((+++)>2) | EC50 (FIXa; [10]): 500 to 1000 nM |
| GDSGRKLSCLGSYCWLSVQFMA | (++) ((++) 1-2) |  |
| KGAYQKLTCLASYCLLFLLTAQ | (++) ((++) 1-2) |  |
| KLTCLASYCLLF | (+++) ((+++)>2) | EC50 (FIXa; [10]): 500 to 1000 nM |
| MLTCIASYCQLG | (+) ((+)<1) |  |
| DSRSAKRKCLASYCWLFGIGQA | (+) ((+)<1) |  |
| KLTCQASYCWLF | (++) ((++) 1-2) |  |
| LLQIPNLTCLGSYCWLDNGVYA | (+) ((+)<1) |  |
| QAKMLKLTCLASYCWLFWVTRS | (+++) ((+++)>2) |  |
| GSCRDQLTCLSSDRWQFFRRVS | (+) ((+)<1) |  |
| KLKCLSSECQLL | (+) ((+)<1) |  |
| HDSLDQLTCLASVCQLASMGAR | (+) ((+)<1) |  |
| QDGDGKLTCRASYCRRFLVGVH | (+) ((+)<1) |  |
| KLKCLASYCWLF | (++++) ((++++)>3) | EC50 (FIXa; [10]): 500 to 1000 nM |
| KLTCLSSYCWLF | (+++) ((+++)>2) |  |
